In the experiment the target is T1, XOD (xanthine oxidase) (Bos taurus, UniProt P80457).
T1 construct: gene XDH; oxidase form
In words: xanthine oxidation, absorbance at […] nm, microplate reader. Type of experiment: biochemical.

T1 sequence (P80457 2-1332): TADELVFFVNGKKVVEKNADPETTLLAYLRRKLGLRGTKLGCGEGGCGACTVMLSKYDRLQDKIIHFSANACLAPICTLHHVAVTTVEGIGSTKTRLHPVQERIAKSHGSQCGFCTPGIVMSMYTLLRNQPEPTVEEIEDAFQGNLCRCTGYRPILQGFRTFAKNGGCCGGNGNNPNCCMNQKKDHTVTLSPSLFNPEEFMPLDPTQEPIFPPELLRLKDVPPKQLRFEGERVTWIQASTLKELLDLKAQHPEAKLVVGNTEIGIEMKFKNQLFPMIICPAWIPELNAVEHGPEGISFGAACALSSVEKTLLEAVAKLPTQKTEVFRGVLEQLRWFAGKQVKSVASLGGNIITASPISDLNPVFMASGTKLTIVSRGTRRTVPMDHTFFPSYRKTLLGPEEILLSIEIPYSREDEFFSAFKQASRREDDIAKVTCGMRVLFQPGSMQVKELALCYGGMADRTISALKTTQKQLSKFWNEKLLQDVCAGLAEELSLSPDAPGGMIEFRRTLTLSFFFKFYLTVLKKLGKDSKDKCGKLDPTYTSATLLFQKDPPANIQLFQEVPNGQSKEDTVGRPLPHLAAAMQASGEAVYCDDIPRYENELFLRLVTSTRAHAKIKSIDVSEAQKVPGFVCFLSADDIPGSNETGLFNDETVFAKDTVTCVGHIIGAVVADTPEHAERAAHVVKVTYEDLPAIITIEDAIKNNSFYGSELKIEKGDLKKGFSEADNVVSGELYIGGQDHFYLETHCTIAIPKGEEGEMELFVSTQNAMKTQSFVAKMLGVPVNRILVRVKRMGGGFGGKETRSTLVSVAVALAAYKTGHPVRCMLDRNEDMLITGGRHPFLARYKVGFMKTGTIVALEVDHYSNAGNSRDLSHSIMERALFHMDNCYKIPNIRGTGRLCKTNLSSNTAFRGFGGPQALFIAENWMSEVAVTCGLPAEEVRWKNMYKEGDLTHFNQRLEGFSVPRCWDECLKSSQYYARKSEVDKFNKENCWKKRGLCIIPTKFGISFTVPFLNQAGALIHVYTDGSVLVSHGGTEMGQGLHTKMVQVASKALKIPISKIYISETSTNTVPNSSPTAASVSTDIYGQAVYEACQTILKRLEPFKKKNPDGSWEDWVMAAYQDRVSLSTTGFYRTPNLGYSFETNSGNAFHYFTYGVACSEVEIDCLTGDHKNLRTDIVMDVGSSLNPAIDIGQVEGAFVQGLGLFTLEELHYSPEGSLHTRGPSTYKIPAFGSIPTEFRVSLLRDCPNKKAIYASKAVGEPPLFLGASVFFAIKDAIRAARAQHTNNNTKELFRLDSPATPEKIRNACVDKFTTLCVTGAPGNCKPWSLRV

For the compound `CC(=O)c1cc(O)ccc1O` [DHAP], the midpoint of inhibition, the IC50, lay at 8.12 ± 0.27 µM.
